# Results: patent publication US20230159469A1, “NOVEL PHTHALAZINE DERIVATIVE HAVING ECTONUCLOEOTIDE PYROPHOSPHATASE/PHOSPHODIESTE RASE INHIBITORY ACTIVITY, AND USE THEREOF” (TXINNO BIOSCIENCE INC., priority 2020, published 2023)
# Structures can show the parent of a compound that is named as a salt.
# Molecular target: T1, human recombinant ENPP1 (Homo sapiens, UniProt P22413)
# T1 construct: purchased R & D systems
# T1 sequence (P22413 1-925): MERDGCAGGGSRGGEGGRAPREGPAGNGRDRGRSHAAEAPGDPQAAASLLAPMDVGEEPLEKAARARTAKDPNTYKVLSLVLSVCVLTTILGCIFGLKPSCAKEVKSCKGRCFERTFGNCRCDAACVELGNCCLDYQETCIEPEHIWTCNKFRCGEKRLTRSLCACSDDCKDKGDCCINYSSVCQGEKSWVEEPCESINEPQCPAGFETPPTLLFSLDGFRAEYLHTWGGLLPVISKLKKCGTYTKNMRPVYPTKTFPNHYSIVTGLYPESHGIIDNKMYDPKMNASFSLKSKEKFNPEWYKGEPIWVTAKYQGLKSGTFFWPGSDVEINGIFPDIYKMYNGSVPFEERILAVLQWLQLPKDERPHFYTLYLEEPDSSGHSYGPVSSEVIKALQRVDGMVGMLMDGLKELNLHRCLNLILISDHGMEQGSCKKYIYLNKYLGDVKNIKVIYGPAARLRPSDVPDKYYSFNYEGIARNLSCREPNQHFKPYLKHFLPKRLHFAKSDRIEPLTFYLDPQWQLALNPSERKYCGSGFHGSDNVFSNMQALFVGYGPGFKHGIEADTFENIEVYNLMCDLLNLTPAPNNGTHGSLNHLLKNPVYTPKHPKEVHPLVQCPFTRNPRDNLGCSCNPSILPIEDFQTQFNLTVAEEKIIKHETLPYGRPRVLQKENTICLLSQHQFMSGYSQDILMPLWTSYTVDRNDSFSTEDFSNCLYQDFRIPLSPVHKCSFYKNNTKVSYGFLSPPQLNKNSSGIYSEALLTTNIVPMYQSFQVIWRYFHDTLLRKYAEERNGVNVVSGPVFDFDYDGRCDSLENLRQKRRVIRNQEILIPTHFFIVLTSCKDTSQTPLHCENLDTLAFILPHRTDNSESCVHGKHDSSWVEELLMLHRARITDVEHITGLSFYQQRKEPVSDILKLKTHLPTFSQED
# Assay: ENPP1 enzyme assay with cGAMP substrate (AMP-Glo luminescence)
# Type: biochemical
# Settings: human recombinant ENPP1 3 ng/reaction, cGAMP 5 μM, 37° C. 90 minutes, read-out: Enzymatic activity (ENPP1 IC50)
# Experimental: ENPP1 hydrolyzes nucleotides or nucleotide derivatives to produce nucleoside -5′-monophosphate and pyrophosphate. in addition, ENPP1 hydrolyzes 2′,3′-cGAMP to produce 5′-adenosine monophosphate (AMP) and 5′-guanosine monophosphate (GMP). AMP produced from the reaction is measured using the AMP-Glo® kit (Promega). The AMP-Glo® kit contains two reagents. The first reagent terminates the AMP-producing enzymatic reaction, removes ATP and converts the produced AMP into ADP. The second reagent converts ADP to ATP which is used to generate luminescence in the luciferase reaction. The amount of luminescence measured is proportional to the amount of AMP produced by ENPP1.
# The final reaction mixture contains 50 mM Tris (pH 8.5) buffer, 250 mM NaCl, 0.5 mM. CaCl2, 1 μM ZnCl2, 5% glycerol and 1% DMSO. […] The reaction was initiated by addition of cGAMP (at a final concentration of 5 μM) and reacted at 37° C. for 90 minutes. At the end of the reaction, 10 μl of the AMP-Glo first reagent was added to stop the reaction and the result was stored at room temperature for […]. After storage, 20 μl of an AMP detection solution (a mixture of AMP-Glo II reagent and Kinase-Gio at a ratio of 1:100) was added and stored at room. temperature for 1 hour. Luminescence signals were measured using a Victor® plate reader (Perkin Elmer). The maximal activity control (containing enzymes and substrates only in the presence of 1% DMSO; MAX) and the minimal activity control (containing substrates and 1% DMSO; MIN) were evaluated simultaneously. In each experiment, serially diluted reference ENPP1 inhibitors were tested together. IC50, indicating % residual activity versus compound concentration was determined by fitting inhibition curves using the 3-parameter analysis of GraphPad Prism® software. Serially diluted samples of one compound were tested two or more times and an average IC50 of each compound was calculated.
row,Compound,IC50 [µM]
1,"Cn1nc(-c2cccc(NC(=O)OC(C)(C)C)c2)c2ccccc2c1=O [Compound No. 3, tert-butyl (3(3-methyl-4-oxo-3,4-dihydrophthalazin-1-yl)phenyl)carbamate]",> 10
2,"NS(=O)(=O)Nc1cccc(-c2nn(Cc3ccccc3)c(=O)c3ccccc23)c1 [Compound No. 89, N-(3-(3-benzyl-4-oxo-3,4-dihydrophthalazin-1-yl)phenyl)sulfamide hydrochloride]",< 1
3,"COc1cc2c(Cc3ccc(N(C)S(N)(=O)=O)cc3)n[nH]c(=O)c2cc1OC [Example 185, N-(4-((6,7-dimethoxy-4-oxo-3,4-dihydrophthalazin-1-yl)methyl)phenyl)-N-methylsulfamide hydrochloride]",< 1
4,"CC(C)(C)OC(=O)NS(=O)(=O)N1CCc2cc(-c3n[nH]c(=O)c4ccccc34)ccc2C1 [Compound No. 83, tert-butyl ((6-(4-oxo-3,4-dihydrophthalazin-1-yl)-3,4-dihydroisoquinolin-2(1H)-yl)sulfonyl)carbamate]",> 10
5,"NS(=O)(=O)N1CCc2cc(-c3n[nH]c(=O)c4ccccc34)ccc2C1 [Compound No. 128, 6-(4-oxo-3,4-dihydrophthalazin-1-yl-3,4-dihydroisoquinoline-2(1H)-sulfonamide hydrochloride]",1 to 10
6,"NS(=O)(=O)Nc1ccc(Cc2n[nH]c(=O)c3ccccc23)cc1F [Example 190, N-(2-fluoro-4-((4-oxo-3,4-dihydrophthalazin-1-yl)methyl)phenyl)sulfamide hydrochloride]",< 1
7,"COc1ccc2c(-c3ccc(CN)cc3)n[nH]c(=O)c2c1 [Compound No. 47, 4-(4-(aminomethyl)-phenyl)-7-methoxyphthalazin-1(2H)-one hydrochloride]",< 1
8,"CC(C)(C)OC(=O)NS(=O)(=O)Nc1cccc(-c2nn(Cc3ccccc3)c(=O)c3ccccc23)c1 [Compound No. 62, tert-butyl (N-(3-(3-benzyl-4-oxo-3,4-dihydrophthalazin-1-yl)phenyl)sulfamoyl)carbamate]",> 10
9,"COc1cc2c(Cc3ccc(N)cc3)n[nH]c(=O)c2cc1OC [Example 160, 4-(4-aminobenzyl)-6,7-dimethoxyphthalazin-1(2H)-one hydrochloride]",> 10
10,"CCn1nc(-c2ccc(CNS(=O)(=O)NC(=O)OC(C)(C)C)cc2)c2ccccc2c1=O [Compound No. 67, tert-butyl (N-(4-(3-ethyl-4-oxo-3,4-dihydrophthalazin-1-yl)benzyl)sulfamoyl)carbamate]",> 10
11,"O=c1[nH]nc(-c2ccc(CNS(=O)(=O)C3CC3)cc2)c2ccccc12 [Example 196, N -(4-(4-oxo-3,4-dihydrophthalazin-1-yl)benzyl)cyclopropanesulfonamide]",> 10
12,"Cn1nc(Cc2ccc(NS(=O)(=O)NC(=O)OC(C)(C)C)cc2)c2ccccc2c1=O [Example 170, tert-butyl (N-(4-((3-methyl-4-oxo-3,4-dihydrophthalazin-1-yl)methyl)phenyl)sulfamoyl)carbamate]",> 10
13,"NS(=O)(=O)Nc1ccc(-c2nn(Cc3ccccc3)c(=O)c3ccccc23)cc1 [Compound No. 93, N-(4-(3-benzyl-4-oxo-3,4-dihydrophthalazin-1-yl)phenyl)sulfamide]",> 10
14,"NS(=O)(=O)Nc1ccc(Cc2n[nH]c(=O)c3ccccc23)cc1 [Example 180, N-(4-((4-oxo-3,4-dihydrophthalazin-1-yl)methyl)phenyl)sulfamide hydrochloride]",< 1
15,"NCC1CCN(c2n[nH]c(=O)c3ccccc23)CC1 [Compound No. 134, 4-(4-(aminomethyl)piperidin-1-yl)phthalazin-1(2H)-one hydrochloride]",1 to 10
16,"COc1cc2c(Cc3cccc(NC(=O)OC(C)(C)C)c3)n[nH]c(=O)c2cc1OC [Compound No. 145, tert-butyl (3-((6,7-dimethoxy-4-oxo-3,4-dihydrophthalazin-1-yl)methyl)phenyl)carbamate]",> 10
17,"COc1cc2c(Cc3ccc(NS(=O)(=O)NC(=O)OC(C)(C)C)cc3)nn(C)c(=O)c2cc1OC [Example 172, tert-butyl (N-(4-((6,7-dimethoxy-3-methyl-4-oxo-3,4-dihydrophthalazin-1-yl)methyl)phenyl)sulfamoyl)carbamate]",1 to 10
18,"Cn1nc(-c2cccc(NS(=O)(=O)NC(=O)OC(C)(C)C)c2)c2ccccc2c1=O [Compound No. 61, tert-butyl (N-(3-(3-methyl-4-oxo-3,4-dihydrophthalazin-1-yl)phenyl)sulfamoyl)carbamate]",> 10
19,"COc1cc2c(Cc3ccc4c(c3)CCN4S(=O)(=O)NC(=O)OC(C)(C)C)nn(C)c(=O)c2cc1OC [Example 177, tert-butyl (5-((6,7-dimethoxy-3-methyl-4-oxo-3,4-dihydrophthalazin-1-yl)methyl)indolin-1-yl)sulfonyl carbamate]",> 10
20,"NCc1ccc(-c2nn(Cc3ccc(F)cc3)c(=O)c3ccccc23)cc1 [Compound No. 42, 4-(4-(aminomethyl)phenyl)-2-(4-fluorobenzyl)phthalazin-1(2H)-one hydrochloride]",1 to 10
21,"C[C@@H](NS(N)(=O)=O)c1ccc(-c2n[nH]c(=O)c3ccccc23)cc1 [Compound No. 124, (R)-N-(1-(4-(4-oxo-3,4-dihydrophthalazin-1-yl)phenyl)ethyl)sulfamide hydrochloride]",< 1
22,"CCn1nc(-c2ccc(CNS(N)(=O)=O)cc2)c2ccccc2c1=O [Compound No. 98, N-(4-(3-ethyl-4-oxo-3,4-dihydrophthalazin-1-yl)benzyl)sulfamide hydrochloride]",1 to 10
23,"CC(C)(C)OC(=O)NCC1CCN(c2n[nH]c(=O)c3ccccc23)CC1 [Compound No. 132, tert-butyl ((1-(4-oxo-3,4-dihydrophthalazin-1-yl)piperidin-4-yl)methyl)carbamate]",> 10
24,"CN(C(=O)OC(C)(C)C)c1ccc(Cc2n[nH]c(=O)c3ccccc23)cc1 [Compound No. 151, tert-butyl (4-((4-oxo-3,4-dihydrophthalazin-1-yl)methyl)phenyl) (methyl)carbamate]",> 10
25,"COc1cc2c(Cc3ccc(NC(=O)OC(C)(C)C)cc3)n[nH]c(=O)c2cc1OC [Compound No. 149, tert-butyl (4-((6,7-dimethoxy-4-oxo-3,4-dihydrophthalazin-1-yl)methyl)phenyl)carbamate]",> 10
26,"CN(c1ccc(Cc2n[nH]c(=O)c3ccccc23)cc1)S(=O)(=O)NC(=O)OC(C)(C)C [Example 173, tert-butyl N-methyl-N-(4-((4-oxo-3,4-dihydrophthalazin-1-yl)methyl)phenyl)sulfamoyl carbamate]",> 10
27,CC(C)(C)OC(=O)NCc1ccc(-c2nn(Cc3ccccc3)c(=O)c3ccccc23)cc1 [Compound No. 13],> 10
28,"NS(=O)(=O)NCc1cccc(-c2nn(Cc3ccccc3)c(=O)c3ccccc23)c1 [Compound No. 90, N-(3-(3-benzyl-4-oxo-3,4-dihydrophthalazin-1-yl)benzyl)sulfamide hydrochloride]",> 10
29,"O=c1[nH]nc(-c2ccc3c(c2)CCNC3)c2ccccc12 [Compound No. 55, 4-(1,2,3,4-tetrahydroisoquinolin-6-yl)phthalazin-1(2H)-one hydrochloride]",< 1
30,CC(C)(C)OC(=O)NCc1cccc(-c2n[nH]c(=O)c3ccccc23)c1 [Compound No. 5],> 10
